Assay results taken from patent US5696276A, “Process for preparing 5,8-dihydroxynaphthoquinone derivatives, novel 5,8-dihydroxynaphthoquinone derivatives and their use as anticancer agent” (Kuhnil Pharmaceutical Co., Ltd., priority 1993, dated 1997).

System: S-180 sarcoma cells
Assay: Animal experiment using Sarcoma S-180 cells (survival of mouse)
Assay type: in vivo, male ICR mouse
Conditions: ip, S-180 ICR mouse, comparative drug, 0.5 mg/kg/day (1.2 μmole)
Procedure: In this experiment, healthy male ICR mouse weighing 20 to 25 g were used as test animal and were fed with water and feed without any restriction in the chamber controlled at the temperature of 23° to 24° C. As the feed, the antibiotic-free feed for mouse was used.
S-180 cells which were incubated for 7 days within abdominal cavity of ICR mouse were separated together with ascites. To the separated cells was added sterilized cold physiological saline and the mixture was centrifuged with 400×g for 2 minutes to separate the cell precipitate. The separated cell precipitate was suspended again in sterilized cold physiological saline and then centrifuged to remove the supernatant. Only S-180 cells were taken, excluding any red bllod cells incorporated therein, washed three times with the same method as above, and then suspended to obtain the cell suspension in concentration of 10^7 cells/ml by counting the number of cells with a haemacytometer. Each 0.1 ml of this cell suspension was transplanted in an abdominal cavity.
After 24 hours from the transplantation, mouse were divided so that each group contains 8 to 9 mouse. The test sample was dissolved in a predetermined amount of dimethylsulfoxide to prepare the stock solution which was stored at 4° C. 30 μl of the stock solution was taken and then mixed with 1.5 ml of physiological saline. 0.1 ml of this mixture was intraperitoneally injected to the test animal. To the control group, 2% dimethylsulfoxide-physiological saline solution was injected. Meanwhile, doxorubicin which is used as the comparative drug was dissolved in 2% dimethylsulfoxide-physiological saline solution and then injected in an amount of 0.5 mg(titer)/kg. The schedule for injection comprises a total of 7 to 8 injections in the manner that after the transplantation of cancer cells 0.1 ml of the test sample per a day is administered for 2 to 4 days followed by the rest for one day. The survival rate was calculated on the basis of the date on which all of one control group is died (approximately 18 to 20 days). The survival rate (T/C, %) was calculated by the following equation as proposed in NIC's protocol: [formula]

## COc1cccc2c1C(=O)c1c(O)c3c(c(O)c1C2=O)C[C@@](O)(C(=O)CO)C[C@@H]3O[C@H]1C[C@H](N)[C@H](O)[C@H](C)O1 [Doxorubicin, reference compound]
1200 h, read-out: Number of mouse survived for 50 days (converted)
  responders at 0.5 mg/kg/day: 44.4%
read-out: T/C
  response vs control in vivo at 0.5 mg/kg/day: 230%
